From PMC8214221, “Sequence determinants in the cathelicidin LL-37 that promote inflammation via presentation of RNA to scavenger receptors” (The Journal of Biological Chemistry, 2021)
Residues, ends and D or L forms follow the SMILES beside them.

What was measured:
[1] = test system: normal human epidermal keratinocytes (NHEKs); test: LDH release cytotoxicity assay in keratinocytes; format: cell-based; conditions: minimal concentration giving 50% LDH release by NHEKs
Summary of the method: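 Normal human epidermal keratinocytes were exposed to LL-34 parent and alanine-substituted peptides. Cytotoxicity was read as LDH release in fresh culture supernatants after treatment, using a commercial kit, and reported as the minimal concentration showing toxicity.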

[2] = test system: NHEKs, IL-6 secretion in response to U1 dsRNA; test: IL-6 secretion ELISA in NHEKs; format: cell-based, human; conditions: U1 dsRNA 2.5 μg/ml + peptide 2 μM, 18 h, n = 3
Protocol: (§1) Protein levels of human IL-6 were analyzed from cell supernatant with ELISA (n = 3). Corresponding MIC values of LL-34 peptides L1A–R34A against Staphylococcus aureus USA300 are shown in the heat map. B, human dermal endothelial cells (HDMECs) were treated with either U1 dsRNA (2.5 μg/ml) or a combination of U1 dsRNA (2.5 μg/ml) and LL-34 peptides (Pep 1–Pep 34 and Pep–parent LL-34) at 2 μM for 18 h. IL-6 ELISA results are shown (n = 3). Green bars denote loss of IL-6 protein secretion compared with parent control shown in red. C, helical wheel plot for LL-34. Amino acids with green circles denote specific residues where replacement with an alanine caused the loss of IL-6 secretion compared with parent LL-34 peptide in NHEKs cotreated with U1 dsRNA. D, in the helical wheel plot for LL-34, circled green amino acids indicate that a substitution caused a loss of vetting in HDMEC. E–H, NHEKs were treated with LL-34-parent peptide (LL-34-P), LL-34-F5A, LL-34-I24A, LL-34-F27A, and LL-34-L31A at 2 μM, either individually or in combination with U1 dsRNA (2.5 μg/ml) for 8 h. Gene expression of IL-6, IFNB1, TSLP, and CXCL10 was assessed with qRT-PCR. GAPDH was used as a reference gene (n = 3) (∗p < 0.05; ∗∗∗∗p < 0.0001). One way-ANOVA was used. IL-6, interleukin 6; LL-34, 34-amino acid peptide; MIC, minimum inhibitory concentration, ns, not significant.
We hypothesized that sequential replacement of each amino acid in LL-34 peptide with a neutral amino acid alanine might reveal the amino acid residues critical for its ability to induce inflammation in response to U1 dsRNA. First, we treated NHEKs and human dermal microvascular endothelial cells (HDMECs) with LL-34 parent peptide and each of the 34 mutants at 2 μM for 18 h and measured the secretion of interleukin 6 (IL-6) in the supernatant by ELISA (Fig. S1, A and B). […] We then treated both NHEKs and HDMECs with a combination of U1 dsRNA (2.5 μg/ml) and the LL-34 parent/mutant peptides at 2 μM for 18 h and measured IL-6 secretion (Fig. 1, A–C). […] A similar pattern of IL-6 release was observed when HDMECs were treated with the peptide library and U1 dsRNA (Fig. 1B).
Cell culture supernatant was frozen at −80 °C until use for analysis. ELISA was performed with sandwich ELISA kits (R&D Systems) and quantified on a Spectramax Absorbance reader (Molecular Biosystems). Data were analyzed with GraphPad.

[3] = test system: NHEKs, IL6, IFNB1, TSLP, CXCL10 mRNA; test: qRT-PCR gene expression in NHEKs; format: cell-based, human; conditions: 18 h / 8 h (Fig. 1 legend), n = 3; for Gene expression of IL6, IFNB1, and CXCL10, cotreatment with U1 dsRNA: U1 dsRNA 2.5 μg/ml + peptide 2 μM; for Gene expression of TSLP, peptide alone / Basal expression of IL6, IFNB1, and CXCL10, peptide alone: peptide 2 μM alone; for Gene expression of TSLP, peptide alone: GAPDH reference
Protocol: as §1
(§2) We further looked at mRNA abundance by quantitative RT-PCR (qRT-PCR) to evaluate gene expression for type 1 interferon IFNB1, chemokine CXCL10, and cytokines TSLP and IL6 in NHEKs treated with selected LL-34 parent, LL-34—F5A, I24A, F27A, and L31A—peptides either alone or in combination with U1 dsRNA for 18 h (Fig. 1, E–H).
RNA extracted from cells (Pure Link RNA Isolation Kit; Life Technologies) was quantified on the Nanodrop 2000/200C Spectrophotometer (Thermo Fisher Scientific). About 500 ng of purified RNA was used to synthesize complementary DNA with iScript cDNA Synthesis Kit (Bio-Rad). Predeveloped Taqman (Thermo Fisher Scientific) gene expression assays were used to evaluate mRNA transcript levels. Taqman cycling conditions were used as previously described ([9], [45]). All experiments were performed on a CFX96 system (Bio-Rad). Fold change relative to GAPDH was calculated using the Livak ΔΔCt method ([46]).

[4] = test system: S. aureus strain USA300 and SA112, GAS; test: Bacterial growth inhibition (OD600), Gram-positive strains; format: cell-based, Staphylococcus aureus; group A Streptococcus; conditions: 0-50 µM overnight, OD 600, n = 3, S. aureus USA300, SA113 (SA112 in text)
Protocol: as §2
(§3) Methicillin-resistant S. aureus USA300 and methicillin-sensitive S. aureus SA113 (American Type Culture Collection 35556) were cultured in 3% tryptic soy broth overnight at 37 °C with shaking at 250 rpm. GAS M49 strain NZ131 was cultured in Todd Hewitt broth supplemented with 1% yeast extract overnight at 37 °C without shaking. E. coli R1 strain RS218 was cultured in LB broth overnight at 37 °C with shaking at 250 rpm. MIC values were determined using a round-bottom 96-well microdilution method with RPMI cell culture media (as a source of Ca^2+ and Mg^2+) supplemented with tryptic soy broth, Todd Hewitt broth/yeast extract, or LB to facilitate growth of the respective bacterial strains. Overnight bacterial cultures were subcultured into fresh broth and grown to midlate log phase indicated by an absorbance at 600 nm value between 0.8 and 1.0 for each bacterial strain. The absorbance was then normalized to provide a concentration of 1 × 10^7 colony-forming units/ml in RPMI medium. The LL-34 parent and alanine scan mutants were serially diluted into the 96-well microtiter plates containing prewarmed RPMI bacterial growth medium. A 10 μl aliquot of the midlate log phase bacteria was inoculated into the 96-well microtiter plates that contained 95 μl of RPMI medium with or without the LL-34 peptide dilutions and incubated for 16 to 18 h at […] with shaking at 200 rpm. Inhibition of growth was determined by measuring the absorbance at 600 nm readings of each well using a microplate reader (Infinite M200 Pro; Tecan). The MIC of each bacterial strain was determined by the lowest peptide concentration that inhibited more than 80% bacterial growth.
(§4) (A) NHEKs and HDMECs (B) were treated with LL34- parent peptide and all the 34 alanine substituted peptides (Pep L1A-Pep R34A) and LL37 at 2 µM for 16 h. IL-6 protein secretion was assessed with ELISA (n=3) (C-F) LL34-Parent, LL34 F5A, LL34 I24A, LL34 F27A, and LL34 L31A peptides were incubated with S. aureus USA 300, S. aureus SA113, Group A Streptococcus (GAS) and E. coli at increasing concentrations (0-50 µM) overnight, and bacterial culture growth was assayed as absorbance at OD 600 (n=3).

Escherichia coli = test: Bacterial growth inhibition (OD600), E. coli; format: cell-based; conditions: 0-50 µM overnight, OD 600, n = 3
Protocol: as §2, §3, §4

[5] = test system: methicillin-resistant Staphylococcus aureus strain USA300; format: cell-based; conditions: MIC comparison with parent (MIC 25 μM); 18 h
Source text: Since LL-34 was the minimal truncation mutant of LL-37 that retained both antimicrobial and immune modulatory activity, we prepared a series of synthetic peptides with sequential substitutions of alanine at each amino acid position of the LL-34 parent peptide (Table 1). We compared the minimum inhibitory concentration (MIC) for the LL-34 parent peptide and the alanine mutants (LL-34 peptides—L1A and R34A) against methicillin-resistant Staphylococcus aureus strain USA300 (Fig. 1A). LL-34 peptides were incubated at concentrations of 0 to 100 μM with bacteria. The minimal concentration at which no growth was observed was noted after 18 h of incubation. […] Because of these changes in the MIC against S. aureus between the mutants, we investigated the effective toxicity profile of the peptides in normal human epidermal keratinocytes (NHEKs) by lactate dehydrogenase (LDH) release assay (Table 1). […] Most other peptides were cytotoxic at a minimal concentration of 10 μM, whereas LL-34—K15A was toxic at a concentration of 2.5 μM.
as §3

Row | Structure (SMILES) | Minimal cytotoxic concentration in NHEK (LD50) [1] | IL-6 protein secretion, cotreatment with U1 dsRNA, vs U1 dsRNA + LL-34 parent [2] | Gene expression of IL6, IFNB1, and CXCL10, cotreatment with U1 dsRNA [3] | Gene expression of TSLP, peptide alone [3] | Basal expression of IL6, IFNB1, and CXCL10, peptide alone [3] | Capacity to inhibit growth of Gram-positive bacteria [4] | Action against Gram-negative E. coli (Escherichia coli) | Antimicrobial potency against S. aureus USA300 compared with LL-34 parent peptide [5]
1 | CC[C@H](C)[C@H](NC(=O)[C@H](CCCCN)NC(=O)[C@H](CCC(=O)O)NC(=O)[C@H](CCCCN)NC(=O)[C@H](CO)NC(=O)[C@H](CCCCN)NC(=O)[C@H](CCCNC(=N)N)NC(=O)[C@H](Cc1ccccc1)NC(=O)[C@H](C)NC(=O)[C@H](CC(=O)O)NC(=O)CNC(=O)[C@H](CC(C)C)NC(=O)[C@@H](N)CC(C)C)C(=O)NCC(=O)N[C@@H](CCCCN)C(=O)N[C@@H](CCC(=O)O)C(=O)N[C@@H](Cc1ccccc1)C(=O)N[C@@H](CCCCN)C(=O)N[C@@H](CCCNC(=N)N)C(=O)N[C@H](C(=O)N[C@H](C(=O)N[C@@H](CCC(N)=O)C(=O)N[C@@H](CCCNC(=N)N)C(=O)N[C@H](C(=O)N[C@@H](CCCCN)C(=O)N[C@@H](CC(=O)O)C(=O)N[C@@H](Cc1ccccc1)C(=O)N[C@@H](CC(C)C)C(=O)N[C@@H](CCCNC(=N)N)C(=O)N[C@@H](CC(N)=O)C(=O)N[C@@H](CC(C)C)C(=O)N[C@H](C(=O)N1CCC[C@H]1C(=O)N[C@@H](CCCNC(=N)N)C(=O)O)C(C)C)[C@@H](C)CC)C(C)C)[C@@H](C)CC [LL-34—F5A] (H-LLGDAFRKSKEKIGKEFKRIVQRIKDFLRNLVPR-OH) | 10 µM | reduced secretion of IL-6 protein | reduction in gene expression | increased gene expression of TSLP | not affected | increased capacity to inhibit growth of most of the tested Gram-positive bacteria | little action | –
2 | CC[C@H](C)[C@H](NC(=O)[C@H](CCCCN)NC(=O)[C@H](CCC(=O)O)NC(=O)[C@H](CCCCN)NC(=O)[C@H](CO)NC(=O)[C@H](CCCCN)NC(=O)[C@H](CCCNC(=N)N)NC(=O)[C@H](Cc1ccccc1)NC(=O)[C@H](Cc1ccccc1)NC(=O)[C@H](CC(=O)O)NC(=O)CNC(=O)[C@H](CC(C)C)NC(=O)[C@@H](N)CC(C)C)C(=O)NCC(=O)N[C@@H](CCCCN)C(=O)N[C@@H](CCC(=O)O)C(=O)N[C@@H](Cc1ccccc1)C(=O)N[C@@H](CCCCN)C(=O)N[C@@H](CCCNC(=N)N)C(=O)N[C@H](C(=O)N[C@H](C(=O)N[C@@H](CCC(N)=O)C(=O)N[C@@H](CCCNC(=N)N)C(=O)N[C@H](C(=O)N[C@@H](CCCCN)C(=O)N[C@@H](CC(=O)O)C(=O)N[C@@H](C)C(=O)N[C@@H](CC(C)C)C(=O)N[C@@H](CCCNC(=N)N)C(=O)N[C@@H](CC(N)=O)C(=O)N[C@@H](CC(C)C)C(=O)N[C@H](C(=O)N1CCC[C@H]1C(=O)N[C@@H](CCCNC(=N)N)C(=O)O)C(C)C)[C@@H](C)CC)C(C)C)[C@@H](C)CC [LL-34—F27A] (H-LLGDFFRKSKEKIGKEFKRIVQRIKDALRNLVPR-OH) | 10 µM | reduced secretion of IL-6 protein | reduction in gene expression | increased gene expression of TSLP | not affected | increased capacity to inhibit growth of most of the tested Gram-positive bacteria | little action | –
3 | CC[C@H](C)[C@H](NC(=O)[C@H](CCCCN)NC(=O)[C@H](CCC(=O)O)NC(=O)[C@H](CCCCN)NC(=O)[C@H](CO)NC(=O)[C@H](CCCCN)NC(=O)[C@H](CCCNC(=N)N)NC(=O)[C@H](Cc1ccccc1)NC(=O)[C@H](Cc1ccccc1)NC(=O)[C@H](CC(=O)O)NC(=O)CNC(=O)[C@H](CC(C)C)NC(=O)[C@@H](N)CC(C)C)C(=O)NCC(=O)N[C@@H](CCCCN)C(=O)N[C@@H](CCC(=O)O)C(=O)N[C@@H](Cc1ccccc1)C(=O)N[C@@H](CCCCN)C(=O)N[C@@H](CCCNC(=N)N)C(=O)N[C@H](C(=O)N[C@H](C(=O)N[C@@H](CCC(N)=O)C(=O)N[C@@H](CCCNC(=N)N)C(=O)N[C@H](C(=O)N[C@@H](CCCCN)C(=O)N[C@@H](CC(=O)O)C(=O)N[C@@H](Cc1ccccc1)C(=O)N[C@@H](C)C(=O)N[C@@H](CCCNC(=N)N)C(=O)N[C@@H](CC(N)=O)C(=O)N[C@@H](CC(C)C)C(=O)N[C@H](C(=O)N1CCC[C@H]1C(=O)N[C@@H](CCCNC(=N)N)C(=O)O)C(C)C)[C@@H](C)CC)C(C)C)[C@@H](C)CC [LL-34—L28A] (H-LLGDFFRKSKEKIGKEFKRIVQRIKDFARNLVPR-OH) | 5 µM | reduced secretion of IL-6 protein | – | – | – | – | – | killed S. aureus USA300 more potently
